Source: patent publication US11993599B2, “Therapeutic compounds” (Genentech, Inc., priority 2021, dated 2024)

Tests used:
Type in all cases: cell-based
[1] = target: T1, BRM (Homo sapiens, UniProt P51531); experiment: HiBIT nanoluciferase complementation screen for BRM degraders; conditions: 18 hours, BRM-HiBIT KI Hela cells, luminescence normalized: DMSO only = 0%, no cells = −100%; for Median HiBiT activity 1 μM: compound 1 μM; for Median HiBiT activity 10 μM: compound 10 μM
Text: Example B-1: HiBIT Nanoluciferase Complementation Screen for BRM Degraders
To assess BRM degradation, compounds were screened for their effect of BRM levels using the HiBIT nanoluciferase complementation strategy developed at Promega. In brief, a HELA cell line that was genetically modified via CRISPR/CAS9 was used to fuse the HiBIT sequence at the 3′ end of BRM (BRM-HiBIT KI Hela). BRM protein levels were then detected using the Nano-Glo HiBIT lytic detection reagent (Promega).
The screened compounds were plated into a white 384-well plate at 10 μM and 1 μM in 25 nL DMSO using an Echo dispenser (Labcyte). BRM-HiBIT KI Hela cells were seeded in the compound plate at 5000 cell per well at 25 μl in DMEM growth media (containing 10% FBS, 1% Glutamax (GIBCO cat #31053-028), lx Penicillin-Streptomycin (ROCHE, cat #1107444001), 4.5 g/L D-Glucose, and no phenol red). After incubation with compounds for 18 hours at 37° C., cell viability was assessed by the addition of 5 μl Cell Titer-Fluor reagent (Promega). After 30 s of mixing on an orbital shaker, and 30 minutes incubation at 37° C., fluorescence was measured with an INFINITE F500 (Tecan) (380-400 nm excitation, 505 nm emission). Next, to assess BRM HiBIT levels, 30 μl of Nano-Glo HiBIT lytic detection reagent (Promega) containing 1:50 Nano-Glo HiBIT lytic substrate and 1:100 LgBIT protein per ml of lytic buffer was added. After shaking on an orbital shaker at 350 rpm for 10 minutes, luminescence was measured on the INFINITE F500 (Tecan). To assess compound effects, luminescence signal was normalized with the mean of wells treated with DMSO only set to 0% and the mean of wells containing no cells set to −100%. Note that, in Table 4, the “Compound Number” corresponds to that used in Table 1.

[2] = target: T2, BRG1 (Homo sapiens, UniProt P51532); experiment: Immunofluorescence assay for BRG1 degradation in SW1573 cells; conditions: 20 hours incubation; for DC50: immunofluorescence mean nuclear signal, read-out: BRG1 IF Degradation IC50; for Dmax: SW1573, 20 h, normalized to a known degrader control, read-out: BRG1 IF Degradation Sinf (%)
T2 construct: either BRM primary antibody (Cell signaling Cat #11966) or BRG primary antibody (Abcam, ab 110641); endogenous in cells; host or cells: SW1573
T2 sequence (P51532 whole entry): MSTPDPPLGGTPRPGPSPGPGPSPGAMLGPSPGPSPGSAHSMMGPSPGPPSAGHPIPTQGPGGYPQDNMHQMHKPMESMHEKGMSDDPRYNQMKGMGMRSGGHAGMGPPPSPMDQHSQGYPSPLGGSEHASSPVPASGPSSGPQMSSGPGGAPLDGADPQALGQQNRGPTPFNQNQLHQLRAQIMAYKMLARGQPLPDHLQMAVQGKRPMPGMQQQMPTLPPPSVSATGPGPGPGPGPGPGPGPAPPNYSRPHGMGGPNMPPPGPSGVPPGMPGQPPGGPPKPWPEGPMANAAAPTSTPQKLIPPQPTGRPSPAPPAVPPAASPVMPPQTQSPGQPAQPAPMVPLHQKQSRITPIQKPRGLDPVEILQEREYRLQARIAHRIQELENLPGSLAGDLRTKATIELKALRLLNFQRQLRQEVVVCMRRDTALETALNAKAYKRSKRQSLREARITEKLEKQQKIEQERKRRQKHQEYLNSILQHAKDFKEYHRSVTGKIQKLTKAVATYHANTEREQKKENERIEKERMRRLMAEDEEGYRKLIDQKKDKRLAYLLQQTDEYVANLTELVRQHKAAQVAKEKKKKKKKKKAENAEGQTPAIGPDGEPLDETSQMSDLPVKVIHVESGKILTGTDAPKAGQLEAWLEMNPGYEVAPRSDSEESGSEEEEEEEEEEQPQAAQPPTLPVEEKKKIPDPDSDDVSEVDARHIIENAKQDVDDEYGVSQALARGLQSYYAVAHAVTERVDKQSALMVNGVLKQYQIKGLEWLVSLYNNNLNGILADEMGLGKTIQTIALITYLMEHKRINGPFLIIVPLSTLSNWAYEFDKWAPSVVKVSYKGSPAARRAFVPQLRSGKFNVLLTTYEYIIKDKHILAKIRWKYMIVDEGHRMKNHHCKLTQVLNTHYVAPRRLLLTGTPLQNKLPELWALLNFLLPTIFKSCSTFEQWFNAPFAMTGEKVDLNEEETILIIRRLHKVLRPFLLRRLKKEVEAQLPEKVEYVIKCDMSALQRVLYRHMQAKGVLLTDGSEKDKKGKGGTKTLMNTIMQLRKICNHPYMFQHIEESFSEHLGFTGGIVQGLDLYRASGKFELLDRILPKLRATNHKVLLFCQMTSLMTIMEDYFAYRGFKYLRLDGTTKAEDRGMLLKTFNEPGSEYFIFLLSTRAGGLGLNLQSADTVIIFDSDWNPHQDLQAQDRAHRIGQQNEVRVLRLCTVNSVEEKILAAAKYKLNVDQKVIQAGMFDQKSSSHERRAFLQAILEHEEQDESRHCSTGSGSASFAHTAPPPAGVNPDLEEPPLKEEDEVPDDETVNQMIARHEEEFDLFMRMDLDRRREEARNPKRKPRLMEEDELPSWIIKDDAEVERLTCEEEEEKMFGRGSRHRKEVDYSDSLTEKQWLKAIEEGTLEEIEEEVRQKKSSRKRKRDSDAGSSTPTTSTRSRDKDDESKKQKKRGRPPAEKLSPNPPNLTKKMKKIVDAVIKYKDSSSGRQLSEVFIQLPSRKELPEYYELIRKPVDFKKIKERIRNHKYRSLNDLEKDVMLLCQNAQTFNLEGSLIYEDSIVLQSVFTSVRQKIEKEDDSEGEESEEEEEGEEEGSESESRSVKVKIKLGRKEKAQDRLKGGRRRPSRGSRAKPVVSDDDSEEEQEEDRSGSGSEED
Method in brief: (§1)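 Read-out: mean per-cell nuclear BRM or BRG1 immunofluorescence by automated imaging. SW1573, 20 h compound, 4% formaldehyde fix, Triton permeabilization, overnight 4 °C primary antibody, fluorescent secondary plus Hoechst. Normalized to reference degrader; floating-max curve fit gives Dmax.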

[3] = target: T1, BRM; experiment: Immunofluorescence assay for BRM degradation in SW1573 cells; design: treated overnight at 4° C. with either BRM primary antibody (Cell signaling Cat #11966) or BRG primary antibody; endogenous in cells; host or cells: SW1573; conditions: 20 hours incubation; for DC50: immunofluorescence mean nuclear signal, read-out: BRM IF Degradation IC50; for BRM IF Degradation Sinf (%): normalized to a known degrader control
Method in brief: as §1

T1 sequence (P51531 whole entry): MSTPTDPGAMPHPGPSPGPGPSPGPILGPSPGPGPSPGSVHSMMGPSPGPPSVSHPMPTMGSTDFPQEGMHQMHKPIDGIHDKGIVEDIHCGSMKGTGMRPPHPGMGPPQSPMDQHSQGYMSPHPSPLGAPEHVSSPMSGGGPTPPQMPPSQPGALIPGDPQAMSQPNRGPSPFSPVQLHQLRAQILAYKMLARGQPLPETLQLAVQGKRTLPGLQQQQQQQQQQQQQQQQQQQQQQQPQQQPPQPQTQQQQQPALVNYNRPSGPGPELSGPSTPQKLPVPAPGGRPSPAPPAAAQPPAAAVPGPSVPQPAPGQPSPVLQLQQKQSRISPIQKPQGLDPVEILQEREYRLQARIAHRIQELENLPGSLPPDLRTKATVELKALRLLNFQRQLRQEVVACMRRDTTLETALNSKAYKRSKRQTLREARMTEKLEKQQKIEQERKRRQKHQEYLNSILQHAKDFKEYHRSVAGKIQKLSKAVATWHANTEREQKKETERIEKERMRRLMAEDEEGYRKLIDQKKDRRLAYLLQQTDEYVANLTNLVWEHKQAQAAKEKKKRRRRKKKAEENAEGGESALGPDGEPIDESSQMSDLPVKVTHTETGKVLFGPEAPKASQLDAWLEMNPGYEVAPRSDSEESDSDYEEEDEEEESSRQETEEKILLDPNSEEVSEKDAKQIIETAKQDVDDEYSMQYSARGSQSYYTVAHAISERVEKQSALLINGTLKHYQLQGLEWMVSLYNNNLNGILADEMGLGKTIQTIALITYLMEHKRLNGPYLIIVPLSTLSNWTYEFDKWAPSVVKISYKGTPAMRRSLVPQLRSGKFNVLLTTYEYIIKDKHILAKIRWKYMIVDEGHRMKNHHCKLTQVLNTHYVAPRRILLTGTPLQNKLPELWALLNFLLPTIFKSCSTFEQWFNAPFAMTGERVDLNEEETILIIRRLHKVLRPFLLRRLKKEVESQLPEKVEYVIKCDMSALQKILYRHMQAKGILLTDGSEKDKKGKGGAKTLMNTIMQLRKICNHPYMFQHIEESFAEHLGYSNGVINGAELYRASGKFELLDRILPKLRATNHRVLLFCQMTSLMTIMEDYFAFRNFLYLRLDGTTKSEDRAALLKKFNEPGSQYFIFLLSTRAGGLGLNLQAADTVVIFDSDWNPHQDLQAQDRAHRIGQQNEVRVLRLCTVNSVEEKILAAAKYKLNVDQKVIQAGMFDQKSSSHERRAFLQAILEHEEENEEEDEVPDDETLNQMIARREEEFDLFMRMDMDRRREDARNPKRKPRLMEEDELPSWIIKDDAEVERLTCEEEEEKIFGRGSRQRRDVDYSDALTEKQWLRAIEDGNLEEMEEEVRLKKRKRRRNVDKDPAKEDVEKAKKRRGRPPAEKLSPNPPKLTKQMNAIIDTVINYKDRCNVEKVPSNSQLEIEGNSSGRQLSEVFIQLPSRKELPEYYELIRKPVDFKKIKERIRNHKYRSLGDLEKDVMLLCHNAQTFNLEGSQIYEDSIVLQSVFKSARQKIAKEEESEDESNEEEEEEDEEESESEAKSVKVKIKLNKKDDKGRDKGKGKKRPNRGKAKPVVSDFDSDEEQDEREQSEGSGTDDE

Row | Structure (SMILES) | Median HiBiT activity 1 μM [1] [%] | Median HiBiT activity 10 μM [1] [%] | DC50 [2] [µM] | Dmax [2] [%] | DC50 [3] [µM] | BRM IF Degradation Sinf (%) [3]
1 | Nc1nnc(-c2ccccc2O)cc1N1CC2CCC(C1)N2c1ccnc(C#CC2CNC2)c1 [Compound 6, 2-(6-amino-5-(8-(2-(azetidin-3-ylethynyl)pyridin-4-yl)-3,8-diazabicyclo[3.2.1]octan-3-yl)pyridazin-3-yl)phenol] | −61.1458 | −67.7912 | > 0.1 | 0 to 30 | 0.01 to 0.1 | E (E indicates −30%-−70%)
2 | Cn1cc(C#Cc2cc(N3C4CCC3CN(c3cc(-c5ccccc5O)nnc3N)C4)ccn2)cn1 [Compound 21, 2-(6-amino-5-(8-(2-((1-methyl-1H-pyrazol-4-yl)ethynyl)pyridin-4-yl)-3,8-diazabicyclo[3.2.1]octan-3-yl)pyridazin-3-yl)phenol] | −32.7297 | −42.1813 | 0.01 to 0.1 | 0 to 30 | > 0.1 | –
3 | CCN(CC)CC#Cc1cc(N2C3CCC2CN(c2cc(-c4ccccc4O)nnc2N)C3)ccn1 [Compound 5, 2-(6-amino-5-(8-(2-(3-(diethylamino)prop-1-yn-1-yl)pyridin-4-yl)-3,8-diazabicyclo[3.2.1]octan-3-yl)pyridazin-3-yl)phenol] | −63.6385 | −31.0597 | < 0.01 | 30 to 70 | < 0.01 | E (E indicates −30%-−70%)
4 | Nc1nnc(-c2ccccc2O)cc1N1CC2CCC(C1)N2c1ccnc(C#CC2CCCNC2)c1 (centres unmarked) [Compound 8, 2-(6-amino-5-(8-(2-(piperidin-3-ylethynyl)pyridin-4-yl)-3,8-diazabicyclo[3.2.1]octan-3-yl)pyridazin-3-yl)phenol] | −51.6794 | −23.8415 | > 0.1 | – | 0.01 to 0.1 | E (E indicates −30%-−70%)
5 | NCCCCCCc1cc(N2C3CCC2CN(c2cc(-c4ccccc4O)nnc2N)C3)ccn1 [Compound 20, 2-(6-amino-5-(8-(2-(6-aminohexyl)pyridin-4-yl)-3,8-diazabicyclo[3.2.1]octan-3-yl)pyridazin-3-yl)phenol] | −33.3403 | −8.91 | 0.01 to 0.1 | 71 to 120 | 0.01 to 0.1 | F (F indicates −71%-−120%)
6 | Nc1nnc(-c2ccccc2O)cc1N1CC2CCC(C1)N2c1ccnc(C#CCC2CCNC2)c1 (centres unmarked) [Compound 34, 2-(6-amino-5-(8-(2-(3-(pyrrolidin-3-yl)prop-1-yn-1-yl)pyridin-4-yl)-3,8-diazabicyclo[3.2.1]octan-3-yl)pyridazin-3-yl)phenol] | −7.217 | −29.4355 | – | – | > 0.1 | –
7 | C[C@@H]1CN(CC#Cc2cc(N3C4CCC3CN(c3cc(-c5ccccc5O)nnc3N)C4)ccn2)C[C@H](C)O1 [Compound 59, 2-[6-amino-5-[8-[2-[3-[(2S,6R)-2,6-dimethylmorpholin-4-yl]prop-1-ynyl]-4-pyridyl]-3,8-diazabicyclo[3.2.1]octan-3-yl]pyridazin-3-yl]phenol] | – | – | < 0.01 | 0 to 30 | 0.01 to 0.1 | E (E indicates −30%-−70%)
8 | CC1CC(O)CCN(CC#Cc2cc(N3C4CCC3CN(c3cc(-c5ccccc5O)nnc3N)C4)ccn2)C1 (centres unmarked) [Compound 219, 1-[3-[4-[3-[3-amino-6-(2-hydroxyphenyl)pyridazin-4-yl]-3,8-diazabicyclo[3.2.1]octan-8-yl]-2-pyridyl]prop-2-ynyl]-6-methyl-azepan-4-ol] | – | – | < 0.01 | 71 to 120 | < 0.01 | F (F indicates −71%-−120%)
9 | Nc1nnc(-c2ccccc2O)cc1N1CC2CCC(C1)N2c1ccnc(C#CCN2Cc3cccnc3C2)c1 [Compound 56, 2-[6-amino-5-[8-[2-[3-(5,7-dihydropyrrolo[3,4-b]pyridin-6-yl)prop-1-ynyl]-4-pyridyl]-3,8-diazabicyclo[3.2.1]octan-3-yl]pyridazin-3-yl]phenol] | – | – | > 0.1 | 0 to 30 | 0.01 to 0.1 | E (E indicates −30%-−70%)
10 | Nc1nnc(-c2ccccc2O)cc1N1CC2CCC(C1)N2c1ccnc(C#CCN2CC3CCC(C3)C2)c1 [Compound 93, 2-[6-amino-5-[8-[2-[3-(3-azabicyclo[3.2.1]octan-3-yl)prop-1-ynyl]-4-pyridyl]-3,8-diazabicyclo[3.2.1]octan-3-yl]pyridazin-3-yl]phenol] | – | – | > 0.1 | – | < 0.01 | E (E indicates −30%-−70%)
11 | Nc1nnc(-c2ccccc2O)cc1N1CC2CCC(C1)N2c1ccnc(C#CCN2CCC3CCCC32)c1 (centres unmarked) [Compound 94, 2-[5-[8-[2-[3-(3,3a,4,5,6,6a-hexahydro-2H-cyelopenta[b]pyrrol-1-yl)prop-1-ynyl]-4-pyridyl]-3,8-diazabicyclo[3.2.1]octan-3-yl]-6-amino-pyridazin-3-yl]phenol] | – | – | < 0.01 | 30 to 70 | < 0.01 | E (E indicates −30%-−70%)
12 | CO[C@H]1CCN(CC#Cc2cc(N3C4CCC3CN(c3cc(-c5ccccc5O)nnc3N)C4)ccn2)C1 [Compound 128, 2-[6-amino-5-[8-[2-[3-[(3S)-3-methoxypyrrolidin-1-yl]prop-1-ynyl]-4-pyridyl]-3,8-diazabicyclo[3.2.1]octan-3-yl]pyridazin-3-yl]phenol] | – | – | < 0.01 | 30 to 70 | 0.01 to 0.1 | F (F indicates −71%-−120%)
13 | Nc1nnc(-c2ccccc2O)cc1N1CC2CCC(C1)N2c1ccnc(C#CCN2CC3CC3(O)C2)c1 (centres unmarked) [Compound 105, 3-(3-(4-(3-(3-amino-6-(2-hydroxyphenyl)pyridazin-4-yl)-3,8-diazabicyclo[3.2.1]octan-8-yl)pyridin-2-yl)prop-2-yn-1-yl)-3-azabicyclo[3.1.0]hexan-1-ol] | – | – | 0.01 to 0.1 | 0 to 30 | 0.01 to 0.1 | E (E indicates −30%-−70%)
14 | N#CCC1CCN(CC#Cc2cc(N3C4CCC3CN(c3cc(-c5ccccc5O)nnc3N)C4)ccn2)CCC1(F)F (centres unmarked) [Compound 206, 2-[1-[3-[4-[3-[3-amino-6-(2-hydroxyphenyl)pyridazin-4-yl]-3,8-diazabicyclo[3.2.1]octan-8-yl]-2-pyridyl]prop-2-ynyl]-5,5-difluoro-azepan-4-yl]acetonitrile] | – | – | > 0.1 | – | 0.01 to 0.1 | E (E indicates −30%-−70%)
15 | Nc1nnc(-c2ccccc2O)cc1N1CC2CCC(C1)N2c1ccnc(C#CCN2CCN(C3CC3)CC2)c1 [Compound 38, 2-[6-amino-5-[8-[2-[3-(4-cyclopropylpiperazin-1-yl)prop-1-ynyl]-4-pyridyl]-3,8-diazabicyclo[3.2.1]octan-3-yl]pyridazin-3-yl]phenol] | – | – | > 0.1 | – | 0.01 to 0.1 | E (E indicates −30%-−70%)
16 | CC1COCCN1CC#Cc1cc(N2C3CCC2CN(c2cc(-c4ccccc4O)nnc2N)C3)ccn1 (centres unmarked) [Compound 57, 2-[6-amino-5-[8-[2-[3-(3-methylmorpholin-4-yl)prop-1-ynyl]-4-pyridyl]-3,8-diazabicyclo[3.2.1]octan-3-yl]pyridazin-3-yl]phenol] | – | – | > 0.1 | – | 0.01 to 0.1 | E (E indicates −30%-−70%)
17 | CC1(C)CCCN(CC#Cc2cc(N3C4CCC3CN(c3cc(-c5ccccc5O)nnc3N)C4)ccn2)CC1 [Compound 205, 2-[6-amino-5-[8-[2-[3-(4,4-dimethylazepan-1-yl)prop-1-ynyl]-4-pyridyl]-3,8-diazabicyclo[3.2.1]octan-3-yl]pyridazin-3-yl]phenol] | – | – | < 0.01 | 30 to 70 | < 0.01 | F (F indicates −71%-−120%)
